Measured values published in patent US4639468A, “Derivatives of glycinamide, their preparation and their use” (priority 1979, dated 1987).
Like-named read-outs stand apart in the source and are kept apart here.

Legend:
platelet agglutination = assay: inhibition of platelet agglutination in human plasma (turbidimetric method of Born and Cross, Trombofax); format: cell-based; conditions: human plasma rich in platelets, preincubated 3 minutes before Trombofax
Experimental: The measure of the inhibition of platelet agglutination is made according to the turbidimetric method of G. V. R. Born and M. J. Cross (J. Physiol. 168, 178, […]). The plasma rich in platelets is preincubated for 3 minutes before introduction of the inductor agent, Trombofax. The inhibion of the maximum amplitude of agglutination is measured by means of Upchurch agglutometer. In this test, compounds 1, 11, 14 and 18 have shown as being active.

mouse = assay: passive prevention (memory) in mouse; format: in vivo; conditions: 50 mgr/kg intraperitoneally
Description: This product and very likely other compounds of the invention thus improve mnesic retention.

[1] = tested on: convulsions induced by bicuculline; assay: in vivo; conditions: for bicuculline (score: sum of animals protected by dosages of 10 and 100 mgr/kg): oral, 5 mice each, 3 hours before bicuculline 0.6 mgr/kg i.v., tonic convulsions; for ED50: Mus musculus; for DL50/DE50 (therapeutical index): Table III
Experimental: The anticonvulsive effect was examined for tonic convulsions induced by bicuculline. The compounds of the invention were administrated orally at dosages of 10 and 100 mgr/kg, each to 5 mice, 3 hours before intravenous injection of bicuculline at the dosage of 0.6 mgr/kg. The number of mice protected against tonic convulsions and the number of dead mice were noted.
Amongst the substances according to the invention, 2-n-pentylaminoacetamideand its hydrochloride were more particularly studied. […] The hydrochloride was also administered intravenously. […] Table III also gives the therapeutical index (LD50/ED50).

in vivo = conditions: mouse, in vivo, po, read-out: DL50 (the source's name)
[2] = tested on: convulsions induced by strychnine; assay: convulsions induced by strychnine; conditions: in vivo
[3] = tested on: convulsions due to leptazol; assay: convulsions due to leptazol in mouse; format: in vivo
[4] = tested on: decarboxylase glutamate (GAD); assay: activity of decarboxylase glutamate (GAD) in homogenizates of rat brain; format: biochemical; conditions: 10^-4 M
Experimental: The substances of the invention have the property of inhibiting convulsions induced by bicculline in mouse. […] As a matter of fact, bucuculline is a specific antoganist of GABA. Besides, the effect of the products on the activity of the GABA synthesis enzyme, decarboxylase glutamate (GAD), was studied. The activity of the GAD was determined in homogenizates of rat brain according to the method described by L. Parker (Methods in Enzymology, Ed. S. Fleischer, 1974, Vol. XXXII, part V., p. 779). […] In general, the products of the invention […] the activity of the […] (GABA-T), enzyme of GABA catabolism, which results in an increase of the GABA levels at the level of GABA-ergic neurons.

[5] = tested on: central serotoninergic system; assay: potentiation of the effects of 1-trypthophan in mouse; format: in vivo
mice = assay: in vivo; conditions: oral, mice; Table II
[6] = tested on: accumulation of lactate in the brain; assay: cerebral anoxia caused by decapitation of rat: lactate in the brain; format: in vivo; conditions: first seconds of anoxia caused by decapitation
Description: This activity very likely explains itself by an effect on the cerebral energetic metabolism during anoxia. This effect on the cerebral energetic metabolism has been confirmed for 2-n-pentylaminoacetamide hydrochloride in a series of experiments on cerebral anoxia caused by decapitation of rat.

[7] = tested on: convulsions due to picrotoxine; assay: convulsions due to picrotoxine; conditions: in vivo
Description: (3) 2-n-pentylaminoacetamide hydrochloride has no effect on the convulsions due to picrotoxine.

GABA-T = GABA-T activity after oral administration in rat; format: in vivo; conditions: 200 mgr/kg per os
GAD = GAD activity after oral administration in rat; format: in vivo; conditions: 200 mgr/kg per os
[8] = tested on: GABA rate of the black substance; assay: GABA rate of the black substance after oral administration in rat; format: in vivo; conditions: 200 mgr/kg per os, 4 hours after treatment

CCCCCCCCNCC(N)=O [Compound 1, 2-n-octylaminoacetamide]
inhibition of platelet agglutination (platelet agglutination): active | behaviour extinction in passive prevention (mouse): delayed the behaviour extinction | bicuculline (score: sum of animals protected by dosages of 10 and 100 mgr/kg) [1]: 4 | LD50 (in vivo; mice, Table II): 2220 mg/kg

CCCCCNCC(N)=O [Compound 3, 2-n-pentylaminoacetamide]
activity against convulsions induced by strychnine [2]: inactive | inhibition of convulsions due to leptazol [3]: only slightly inhibits | effect on the activity of GAD [4]: particularly remarkable | effect on the effects of 1-trypthophan [5]: potentiates the effects of 1-trypthophan | ED50 ([1]; iv, 3 h, read-out: DE50): 11.2 mg/kg | ED50 ([1]; po): 11.2 mg/kg | antagonist action against convulsions due to bicuculline on increase of the bicuculline doses ([1]; increased bicuculline doses): may be overcome by an increase of the bicuculline doses | competition with bicuculline ([1]; mouse, in vivo): competes with bicuculline | DL50/DE50 (therapeutical index) ([1]; mouse): 172 | bicuculline (score: sum of animals protected by dosages of 10 and 100 mgr/kg) [1]: 7 | DL50 (mice): 1925 mg/kg

CCCCCNCC(N)=O.Cl [Compound 33, 2-n-pentylaminoacetamide hydrochloride]
accumulation of lactate in the brain [6]: prevents accumulation of lactate in the brain | effect on the convulsions due to picrotoxine [7]: no effect | effect on the activity of GAD [4]: particularly remarkable | ED50 ([1]; iv): 2.19 mg/kg | ED50 ([1]; iv, 3 h, read-out: DE50): 5.74 mg/kg | ED50 ([1]; po): 5.74 mg/kg | absorption from the intestinal tractus ([1]; mouse, in vivo): excellent absorption from the intestinal tractus | DL50/DE50 (therapeutical index) ([1]; mouse): 390 | bicuculline (score: sum of animals protected by dosages of 10 and 100 mgr/kg) [1]: 6 | effect on GABA-T (GABA-T): without modifying | potentiation of the GAD activity (GAD): 26% | LD50 (in vivo; mice, Table II): 2880 mg/kg | LD50 (in vivo; Table III): 2240 mg/kg | increase of GABA rate of the black substance [8]: 38%
